Drawing on ChEMBL document CHEMBL3400078, “Constituents of the stem barks of Ailanthus altissima and their potential to inhibit LPS-induced nitric oxide production” (Bioorg Med Chem Lett, 2015), this text covers IC50 for 15 molecules.

Bounds are passed on as bounds.

In this test the test system is RAW264.7. The test is described as follows: Antiinflammatory activity in mouse RAW264.7 cells assessed as decrease in LPS-induced NO production after 24 hrs by Griess assay. The class given is functional, cell-based. The settings on record: RAW264.7, 24 h. (In general: The Griess reaction detects nitrite, a stable product of nitric oxide.)
Broadly, the IC50 is the midpoint of a concentration-inhibition curve. With `COc1cc(/C=C/C(=O)O)ccc1O[C@@H]1O[C@H](CO)[C@@H](O)[C@H](O)[C@H]1O`, the IC50 came to 71.6 µM.
As for `C[C@@](O)(CC(=O)O)CC(=O)OC[C@H]1O[C@@H](Oc2cnc3ccc(=O)n4c5ccccc5c2c34)[C@H](O[C@@H]2OC[C@](O)(CO)[C@H]2O)[C@@H](O)[C@@H]1O`, the IC50 is greater than 100 µM.
With `CC1=CC(=O)[C@@H](O)[C@]2(C)[C@H]3[C@@]4(O)C(=O)OC[C@@]35[C@@H](C[C@@H]12)OC(=O)C[C@H]5[C@H]4C` [SHINJUDILACTONE], the IC50 came to 63.1 µM.
In the case of `COc1cc(C(=O)CCO)ccc1O` it was 43.8 µM; in that of `COc1cc2ccc(=O)oc2c(OC)c1O`, greater than 100 µM; in that of `C=C1[C@@H](O)[C@]2(O)OC[C@]34[C@H]2[C@@]2(C)[C@H](O)[C@@H](O[C@@H]5O[C@H](CO)[C@@H](O)[C@H](O)[C@H]5O)C=C(C)[C@@H]2C[C@H]3OC(=O)C[C@@H]14`, 100 µM.
In the case of `C=C1[C@H](O)[C@]2(O)OC[C@]34[C@H]2[C@@]2(C)[C@H](O)[C@@H](O)C=C(C)[C@@H]2C[C@H]3OC(=O)C[C@@H]14` [SHINJULACTONE A] it was 56.4 µM; in that of `O=c1ccc2ncc(O[C@@H]3O[C@H](CO)[C@@H](O)[C@H](O)[C@H]3O[C@@H]3OC[C@](O)(CO)[C@H]3O)c3c4ccccc4n1c23`, 63.5 µM; in that of `C[C@@](O)(CC(=O)O)CC(=O)OC[C@H]1O[C@@H](Oc2cnc3ccc(=O)n4c5ccccc5c2c34)[C@H](O)[C@@H](O)[C@@H]1O`, 85 µM.
Take `CC(=N)NCCCC[C@H](N)C(=O)O` [L-NIL]: the 50% inhibitory concentration (IC50) stood at 15.8 µM.
On to `COc1cc(/C=C/C(=O)O)ccc1O` [FERULATE], for which the IC50 was greater than 100 µM.
For `O=C(O)c1ccc(O)cc1` [PARABEN], the IC50 is 72.8 µM.
Take `O=C(O)/C=C/c1ccc(O)cc1` [COUMARIC ACID]: the IC50 was determined as 73.4 µM.
For `COc1cc(C(=O)O)ccc1O` [VANILLIC ACID], the IC50 worked out at 23.2 µM.
In the case of `COc1cc([C@H]2OC[C@H]3[C@@H]2CO[C@@H]3c2cc(OC)c(O)c(OC)c2)cc(OC)c1O` [SYRINGARESINOL], the concentration for half-maximal inhibition (IC50) was 21.6 µM.
